Source: publication PMC9164017 (ACS nano, 2021)

Tests used:
MeV F = MeV F (Measles virus, UniProt Q786F3); type: cell-based; conditions: with or without 3g, coincubation or sequential incubation; Figure S17
MeV F (S262R) = MeV F (S262R) (Measles virus, UniProt Q786F3, S262R); type: cell-based; conditions: 1 μM, 60 min 37 °C, then 10 mM zanamivir; triplicate experiments

## N#Cc1cccc(NC(=O)Cc2ccccc2)c1 [3g, N-(3-Cyanophenyl)-2-phenylacetamide]
MeV F
  colocalization of [FIP–HRC]2–PEG11 with F: colocalization is disrupted
MeV F (S262R)
  step of entry at which the compound acts (RBCs released, retained or fused): reversibly bound RBC
